Experimental data as given in patent US20240067631A1, “PYRAZOLE DERIVATIVES USEFUL AS NAMPT MODULATORS” (Cytokinetics, Inc., priority 2020, published 2024).

Key:
human NAMPT = human NAMPT (Homo sapiens (Human), UniProt P43490); assay: Human recombinant enzyme assay (NMN fluorescence biochemical assay); settings: 6 nM human NAMPT, 60 min; for AC1.4 Human: concentration of compound that generates 40% higher activity over basal; for EC50: concentration that gives half-maximal activation
In short: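 Recombinant human NAMPT (6 nM) with 2.5 mM ATP, […] PRPP and […] nicotinamide in HEPES pH 7.2 with DTT, CHAPS, NaCl, MgCl2; 60 min at ambient temperature. NMN derivatised with acetophenone/KOH/formic acid, fluorescence read at 355/460 nm. AC1.4 (40% above basal) and EC50 reported.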

endogenous NAMPT = endogenous NAMPT (Homo sapiens (Human), UniProt P43490); assay: Cellular NAD+ modulation assay in SH-SY5Y cells with doxorubicin; assay type: cell-based; settings: Neuroblastoma SH-SY5Y cells, 40 hours, cellular NAD levels; for EC50: read-out: SY5Y (human) NAD Cell Dox EC50
Procedure: The compounds described herein were also assayed for their ability to stimulate the endogenous NAMPT in a native cellular environment in the cellular NAD+ modulation assay, which measures the ability of the compound to modulate cellular NAD levels. Increased levels of NAD are expected by compounds that permeate the cells and activate the catalytic activity of the endogenous NAMPT.
Neuroblastoma SH-SY5Y cells were grown in 1:1 mixture of Eagle's Minimum Essential Medium and F12 Medium, along with 10% fetal bovine serum, in a humidified incubator with an atmosphere of 95% air and 5% CO2 at 37° C. The assays were initiated by plating 20 μL of SH-SY5Y cells in culture medium with 0.1% fetal bovine serum, at a density of 5000 cells per well to a 384-well Corning™ BioCoat™ Poly-D-Lysine Multiwell Plates. The plates were incubated in the 37° C. incubators for a period of 5 hours. Compounds in DMSO were added to the plates in a volume of 120 nL using the Labcyte Echo Liquid Handlers. 5 μL of a 1.5 uM Doxorubicin solution in assay medium is added to each well. The plates are then incubated for 40 hours. 30 μL of a readout-solution containing 0.2 U/mL Diaphorase enzyme, 40 uM resazurin, 10 uM FMN, 0.8 U/mL Alcohol dehydrogenase, 3% ethanol, 0.4 mg/mL bovine serum albumin, 0.2% Triton X-100 in 100 mM Tris-HCl, 30 mM EDTA, pH 8.4. The plates were read for fluorescence (Excitation/Emission=540 nm/590 nm) using an EnVision plate reader after 60 mins of incubation at ambient temperature.

Sequence of human NAMPT (P43490 whole entry): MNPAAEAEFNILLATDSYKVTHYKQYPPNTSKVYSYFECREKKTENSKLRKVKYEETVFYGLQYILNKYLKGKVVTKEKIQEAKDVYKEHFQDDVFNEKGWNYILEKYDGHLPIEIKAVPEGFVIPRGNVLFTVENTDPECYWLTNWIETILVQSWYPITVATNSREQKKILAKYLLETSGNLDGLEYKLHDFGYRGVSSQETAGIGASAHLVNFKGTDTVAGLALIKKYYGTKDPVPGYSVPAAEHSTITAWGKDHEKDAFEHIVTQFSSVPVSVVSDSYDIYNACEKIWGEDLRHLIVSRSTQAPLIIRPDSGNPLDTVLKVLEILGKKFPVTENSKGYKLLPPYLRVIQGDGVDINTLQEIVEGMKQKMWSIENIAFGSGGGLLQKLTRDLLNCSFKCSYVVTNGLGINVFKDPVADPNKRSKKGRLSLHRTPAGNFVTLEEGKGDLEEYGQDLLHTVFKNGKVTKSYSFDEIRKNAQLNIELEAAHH
Sequence of endogenous NAMPT (P43490 whole entry): as above

Row | AC1.4 Human (human NAMPT) [µM] | EC50 (human NAMPT) [nM] | SY5Y (human) NAD Cell Dox AC0.3 (endogenous NAMPT) [µM] | EC50 (endogenous NAMPT) [nM] | SMILES
1 | 0.035 | 3740 | 0.24 | 230 | Cc1nc(C(=O)N2CCC[C@@H]2c2cccc(Cl)c2)nc(NCCc2cn[nH]c2)c1C [Compound 13, (R)-(4-((2-(1H-pyrazol-4-yl)ethyl)amino)-5,6-dimethylpyrimidin-2-yl)(2-(3-chlorophenyl)pyrrolidin-1-yl)methanone]
2 | 0.054 | 156 | 0.28 | 480 | Cc1nc(C(=O)N[C@H](C)c2cccs2)nc(NCCc2cn[nH]c2)c1C [Compound 14, (R)-4-((2-(1H-pyrazol-4-yl)ethyl)amino)-5,6-dimethyl-N-(1-(thiophen-2-yl)ethyl)pyrimidine-2-carboxamide]
3 | 0.051 | 390 | 0.26 | 190 | Cc1nc(C(=O)N2CCC[C@@H]2c2cccc(F)c2)nc(NCCc2cn[nH]c2)c1C [Compound 15, (R)-(4-((2-(1H-pyrazol-4-yl)ethyl)amino)-5,6-dimethylpyrimidin-2-yl)(2-(3-fluorophenyl)pyrrolidin-1-yl)methanone]
4 | 0.0585 | 621 | 0.41 | 330 | Cc1nc(C(=O)N2CCOC[C@H]2c2ccccc2)nc(NCCc2cn[nH]c2)c1C [Compound 16, (R)-(4-((2-(1H-pyrazol-4-yl)ethyl)amino)-5,6-dimethylpyrimidin-2-yl)(3-phenylmorpholino)methanone]
5 | 0.0715 | 549 | 0.24 | 440 | Cc1nc(C(=O)N[C@H](C)c2ccccc2)nc(NCCc2cn[nH]c2)c1C [Compound 17, (R)-4-((2-(1H-pyrazol-4-yl)ethyl)amino)-5,6-dimethyl-N-(1-phenylethyl)pyrimidine-2-carboxamide]
6 | 0.062 | 848 | 2.97 | 8790 | Cc1nc(C(=O)NC(c2cccc(F)c2)c2nccn2C)nc(NCCc2cn[nH]c2)c1C (stereo not shown) [Compound 20, 4-((2-(1H-pyrazol-4-yl)ethyl)amino)-N-((3-fluorophenyl)(1-methyl-1H-imidazol-2-yl)methyl)-5,6-dimethylpyrimidine-2-carboxamide]
7 | 0.0815 | 550 | 0.13 | 280 | Cc1nc(C(=O)NC(C)(C)c2ccccc2)nc(NCCc2cn[nH]c2)c1C [Compound 21, 4-((2-(1H-pyrazol-4-yl)ethyl)amino)-5,6-dimethyl-N-(2-phenylpropan-2-yl)pyrimidine-2-carboxamide]
8 | 1.956 | 12800 | 7.15 | 8840 | Cc1nc(C(=O)N2CC(O)(c3ccccc3)C2)nc(NCCc2cn[nH]c2)c1C [Compound 22, (4-((2-(1H-pyrazol-4-yl)ethyl)amino)-5,6-dimethylpyrimidin-2-yl)(3-hydroxy-3-phenylazetidin-1-yl)methanone]
9 | 0.0955 | 3240 | 1.57 | 3250 | Cc1nc(C(=O)NC(c2cccc(F)c2)c2ncco2)nc(NCCc2cn[nH]c2)c1C (stereo not shown) [Compound 23, 4-((2-(1H-pyrazol-4-yl)ethyl)amino)-N-((3-fluorophenyl)(oxazol-2-yl)methyl)-5,6-dimethylpyrimidine-2-carboxamide]
10 | 0.0955 | 770 | 2.49 | 2260 | Cc1nc(C(=O)N2CCNCC2c2cccc(F)c2)nc(NCCc2cn[nH]c2)c1C (stereo not shown) [Compound 24, (4-((2-(1H-pyrazol-4-yl)ethyl)amino)-5,6-dimethylpyrimidin-2-yl)(2-(3-fluorophenyl)piperazin-1-yl)methanone]
